Assay results: patent publication US20150010644A1, “OXYGENATION OF THE MUCOSAL BARRIER BY ENTERAL ARTIFICIAL BLOOD TO PREVENT HYPOXIC BREAKDOWN OF THE MUCOSAL BARRIER” (THE REGENTS OF THE UNIVERSITY OF CALIFORNIA, priority 2011, published 2015)
“Also recorded” adds a separate entry of the source.

How the values were obtained:
IEC-18 cells = assay: FITC-dextran permeability of IEC-18 cells on Transwell plates with and without mucin film; format: cell-based; settings: trypsin 50 μM
Protocol: (§1) To investigate whether mucin provides a barrier against trypsin transport, IEC-18 cells (on Transwell plates) were coated with and without a mucin film (400 μm, 10%, porcine stomach). FITC-dextrans (20 kDa, 5 mg/ml) with and without trypsin (50 μM) was added to the apical side and the rate of FITC accumulation on the basal side over 60 min was measured. To determine if trypsin cleaves the adherent junctions of the epithelium, it was measured by Western blot the levels of intra- and extracellular domains of E-cadherin. […] Thus, mucin protects against trypsin-mediated increases in intestinal epithelial permeability.

E-cadherin = assay: Western blot of intra- and extracellular domains of E-cadherin in IEC-18 cells; format: cell-based; settings: trypsin 50 μM
Protocol: as §1

mucin13 = assay: Western blot for mucin13 of intestine homogenates, rat SAO model; format: in vivo; settings: SAO 30 min, lumenal injection 30 min prior
Protocol: (§2) Male Wistar rats (250-300 g, Harlan Sprague Dawley Inc, Indianapolis, Ind.) were randomly assigned to each group (n=4 per group). Rats were kept on solid food restriction for 12 hours prior to surgery with water ad libitum. […] Sham groups were treated the same with the arteries separated but not ligated.
(§3) Perfluorocarbon groups: Perfluorodecalin (PFC) (Sigma-Aldrich, St Louis, Mo.) with oxygen, previously bubbled into the solution for 10 min, was injected into the lumen of the intestine 30 min prior SHAM or SAO surgery (SHAM+PFC+O2, SAO+PFC+O2). PFC without oxygen bubbled into the solution was injected 30 min prior SHAM or SAO surgery (SHAM+PFC, SAO+PFC).
(§4) ATP-MgCl2 groups: ATP-MgCl2 (Sigma-Aldrich), 25 mg/kg BW was injected in the lumen of the intestine 30 min prior to SHAM or SAO surgery (SHAM+ATP, SAO+ATP).
(§5) pH groups: Acidic saline (pH 5.5) injected in the lumen of the intestine 30 min prior SHAM surgery or HEPES buffer (20 mM) injected into the lumen of the intestine 30 min prior to SHAM or SAO surgery.
(§6) Free radicals groups: The hydroxyl radical scavenger, dimethylthiourea (DMTU, Sigma-Aldrich; 2.0 mg/g BW) was injected in the lumen of the intestine 30 min prior to SAO (SAO+DMTU).
(§7) Homogenates of intestine and lumenal contents: Jejunal segments were excised without removal of lumenal contents. For enzyme activity measurements, segments of intestine were homogenized with CelLytic™ (Sigma-Aldrich) without addition of protease inhibitors. For Western blot assays the intestine segments were homogenized as above in the presence of protease inhibitors (5 mM EDTA, 5 mM N-Ethylmaleimide, 25 mM iodoacetamide, 5 mM benzamidine, 300 mM acarbose, 5 mM 6-aminocaproic acid, 1 mM protease inhibitor cocktail, (Sigma-Aldrich). In separate experiments the small intestine of sham animals was excised, and the lumenal contents were flushed with 20 ml saline. Homogenates or lumenal contents were centrifuged (16,000 g for 15 min at 4° C.), the supernatant was collected and protein concentration was assessed with the bicinchoninic acid protein assay (Thermo Scientific).
(§8) Western blot: 20 μg of tissue homogenate were separated by SDS-PAGE. Membranes were incubated with primary antibodies as follows: mucin2, mucin13 and trypsin 1:1000 (Santa Cruz Biotechnology), pancreatic amylase 1:1000 (GeneTex, San Antonio, Tex.), intra- and extra-cellular domains of E-cadherin and TLR4 1:1000 (Abcam), intracellular domain of TLR4 1:1000 (Invitrogen). Secondary antibodies were diluted 1:20000 (Santa Cruz Biotechnology) and detected with Super Signal West Pico (Thermo Scientific). The exposed x-ray films were scanned and label intensity was measured using digital gel analysis (NIH ImageJ software).

intestinal villi hypoxia = assay: Hypoxia staining (pimonidazole, Hypoxyprobe-1) of intestinal villi, rat SAO model; format: in vivo; settings: SAO 30 min; lumenal injection 30 min prior
Protocol: as §2, §3, §4, §5, §6
Hypoxia staining: In separate experiments tissue hypoxia was detected with Hypoxyprobe™-1 Kit (Natural Pharmacia International, Burlington, Mass., USA). This method utilizes a small molecular marker, pimonidazole, which after intravenous injection forms adducts with thiol containing proteins only in oxygen-starved cells. After general anesthesia as described above, pimonidazole-HCl (6 mg/100 g) was injected intravenously 30 min before SAO or SHAM; at 30 min the animal was euthanized and the jejuna section removed, embedded in O.C.T and frozen in liquid nitrogen. Then cryosections were immunostained using a rabbit antibody that binds to protein adducts of pimonidazole in hypoxic cells.

[1] = test system: trypsin activity in the intestinal wall; assay: In-situ zymography for trypsin activity in jejunal cryosections, rat splanchnic arterial occlusion (SAO) model; format: in vivo; settings: lumenal injection 30 min prior
Protocol: as §2
Control groups: Animals with saline injection into the lumen of the intestine, 3 ml/100 g Body Weight (BW), 30 min prior to SHAM or SAO surgery.
as §3
ATP-MgCl2 groups: ATP-MgCl2 (Sigma-Aldrich), 25 mg/kg BW was injected in the lumen of the intestine 30 min prior to SHAM or SAO surgery (SHAM+ATP, SAO+ATP). […]
After 30 min SAO or sham surgery, the animals were euthanized (Beuthanasia®; 0.22 ml/kg BW, IV).
(§9) Tissue cryosections: After euthanasia, jejunal sections (˜1 cm in length) were excised without removal of lumenal contents and suspended in Tissue-Tek O.C.T. Compound (Sakura Finetek, Torrance, Calif.), snap frozen in isopentane/liquid nitrogen, and stored at −80° C. for analysis. Cryosections (5 μm thickness) along the longitudinal axis of the villi were used throughout all experiments. Cryosections were fixed in 10% formalin solution and processed in a non-blinded fashion.
In-situ tissue zymography: In-situ zymography for trypsin activity in cryosections was assessed by measurement of fluorescence resulting from the proteolytic cleavage of the substrate (1 mM, Na-benzoyl-L-arginine-7-amido-methylcoumarin hydrochloride; Sigma-Aldrich) as described elsewhere with propidium iodine counterstaining (Sigma-Aldrich) (9). Slides were observed under an inverted microscope (20× and 60× objectives).

[2] = test system: ATP concentration in intestine homogenates; assay: ATP assay in intestine homogenates, rat SAO model; format: in vivo; settings: SAO 30 min; lumenal injection 30 min prior
Protocol: as §2, §3, §4, §5, §6
ATP assay: ATP concentrations in intestine homogenates were measured using ATP fluorometirc assay kit (BioVision, Mountain View, Calif.) according to manufacturer's protocol. Briefly jejuna sections were homogenized with perchloric acid (BioVision), centrifuged at 15,000×G for 5 min at 4° C. Samples were mixed with ATP reaction mix, incubated for 30 min protected from light and the fluorescence was measured with 535/587 (Ex/Em).

mucin2 [3] = assay: Mucin2 fluorescent staining of jejunal sections, rat SAO model; format: in vivo; settings: SAO 30 min, lumenal injection 30 min prior; for villi injury / villus structure: micrographs
Protocol: as §2, §3, §4, §5, §6, §9
(§10) Mucin and lectin staining: The simultaneous visualization of lectins and mucin was carried out using Lectin GS-II from Griffonia simplicifolia, Alexa Fluor® 594 Conjugate (EnzChek®, Invitrogen, Carlsbad, Calif.) and specific antibody for mucin2 with FITC secondary antibody 1:10000 (Santa Cruz Biotechnology) and nuclei counterstaining with DAPI. Sections were observed on an inverted microscope (20× objective) using the appropriate fluorescent filters.

[4] = test system: lectin staining (carbohydrate portion of mucin); assay: Lectin fluorescent staining (carbohydrate portion of mucin) of jejunal sections, rat SAO model; format: in vivo; settings: SAO 30 min; lumenal injection 30 min prior
Protocol: as §2, §3, §4, §5, §6, §9, §10

mucin2 [5] = assay: Western blot for mucin2 of intestine homogenates, rat SAO model; format: in vivo; settings: SAO 30 min, lumenal injection 30 min prior
Protocol: as §2, §3, §4, §5, §6, §7, §8

ischemic intestine = assay: Rat model with severe ischemic intestine (30 min ischemia), enteral oxygen carrier; format: in vivo; settings: 7 ml for 230 g rat, saturated for 10 min in oxygen
Protocol: The case was illustrated in a model with 30 min ischemia with Perfluorodecalin solution (7 ml for 230 g rat) saturated for 10 min in oxygen.

[6] = test system: MDA equivalents (TBARS) in jejunal homogenates; assay: Thiobarbituric Acid Reactive Substances (TBARS) assay, rat SAO model; format: in vivo; settings: SAO 30 min; lumenal injection 30 min prior
Protocol: as §2, §3, §4
pH groups: Acidic saline (pH 5.5) injected in the lumen of the intestine 30 min prior SHAM surgery or HEPES buffer (20 mM) injected into the lumen of the intestine 30 min prior to SHAM or SAO surgery. […]
TBARS assay: Thiobarbituric Acid Reactive Substances (TBARS) was measured using the TBARS assay kit (Zeptometrix, Buffalo, N.Y.) according to manufacturer's protocol. […] Samples were centrifuged at 3000 rpm for 15 min and the supernatant were read at 530/550 (Ex/Em).

[7] = listed as deoxygenated perfluorcarbon

mucin
decrease of epithelial permeability (FITC-dextran 20 kDa accumulation on basal side over 60 min) (IEC-18 cells; mucin film present (400 μm, 10%, porcine stomach), p<0.05): 30%
E-cadherin cleavage (E-cadherin; mucin film present): cleavage is reduced

CNC(=S)NC [DMTU, dimethylthiourea, reference compound]
mucin13 protein levels / 17 kDa fragment (Western blot) (mucin13): no appearance of the lower molecular weight band at 17 kDA; also recorded: preservation of mucin13 protein levels
hypoxia staining levels (intestinal villi hypoxia): significantly low levels of hypoxia staining as compared to SAO
trypsin activity in the intestinal wall ([1]; SAO 30 min): undetectable levels of trypsin activity; also recorded: reduced trypsin activity in the intestinal wall
ATP concentration in intestinal tissue homogenates [2]: lower than SHAM and higher than SAO but it was not statistically significant
mucin2 staining levels (mucin2 [3]): no significant change in mucin2 staining levels
villi injury / villus structure (mucin2 [3]): undetectable villi injury
lectin staining levels [4]: lower levels of lectin labeling as compared to SHAM; also recorded: decrease in lectin staining
mucin2 protein levels (relative density, Western blot) (mucin2 [5]): reduced levels of mucin2; also recorded: reduction in mucin2 protein levels

trypsin
increase of epithelial permeability (FITC-dextran 20 kDa accumulation on basal side over 60 min) (IEC-18 cells; without a mucin film): 42%
E-cadherin cleavage (E-cadherin; without a mucin film): cleaved

FC1(F)C(F)(F)C(F)(F)C2(F)C(F)(F)C(F)(F)C(F)(F)C(F)(F)C2(F)C1(F)F (stereo not shown) [deoxygenated perfluorocarbon, Perfluorodecalin, reference compound]
mucin13 protein levels / 17 kDa fragment (Western blot) (mucin13; [7]): presented the lower molecular weight fragments at 17 kDa
hypoxia staining levels (intestinal villi hypoxia): highest levels of hypoxia staining
trypsin activity in the intestinal wall ([1]; SAO 30 min): High levels of trypsin activity
trypsin activity in the intestinal wall ([1]; SHAM surgery): minimal trypsin activity
ATP concentration in intestinal tissue homogenates [2]: significantly decreased
mucin2 staining levels (mucin2 [3]): significantly lower
lectin staining levels [4]: significantly lower
mucin2 protein levels (relative density, Western blot) (mucin2 [5]; [7]): reduced in the SAO group (SAO+PFC) as compared to sham (SHAM+PFC)

O=S(=O)(O)CCN1CCN(CCO)CC1 [HEPES buffer, HEPES]
mucin13 protein levels / 17 kDa fragment (Western blot) (mucin13): no degradation of mucin13
hypoxia staining levels (intestinal villi hypoxia): significantly higher than the SHAM and SHAM-HEPES groups as well as the SAO group
trypsin activity in the intestinal wall ([1]; SAO 30 min): Low levels of trypsin activity
trypsin activity in the intestinal wall ([1]; SHAM surgery): minimal trypsin activity
ATP concentration in intestinal tissue homogenates [2]: significantly higher than SAO and similar to sham groups
mucin2 staining levels (mucin2 [3]): significantly lower as compared to SHAM, and they were also significantly higher than SAO
villi injury / villus structure (mucin2 [3]): did not have signs of villi injury
lectin staining levels [4]: lower as compared to SHAM
mucin2 protein levels (relative density, Western blot) (mucin2 [5]): no significant decrease in mucin2 molecule

FC1(F)C(F)(F)C(F)(F)C2(F)C(F)(F)C(F)(F)C(F)(F)C(F)(F)C2(F)C1(F)F (stereo not shown) [oxygenated perfluorocarbon, Perfluorodecalin]
mucin13 protein levels / 17 kDa fragment (Western blot) (mucin13): complete disappearance or very faint levels of the 17 kDa band; also recorded: reduces mucin2 and mucin13 degradation
intestinal damage (ischemic intestine): minimize intestinal damage
trypsin activity in the intestinal wall ([1]; SAO 30 min): prevents the appearance of trypsin activity inside the intestinal wall
trypsin activity in the intestinal wall ([1]; SAO 30 min, listed as oxygenated perfluorcarbon): undetectable levels of trypsin activity
trypsin activity in the intestinal wall ([1]; SHAM surgery): minimal trypsin activity
ATP concentration in intestinal tissue homogenates [2]: no reduction of ATP concentration
mucin2 staining levels (mucin2 [3]): significantly higher as compared to SAO and SAO-PFC
villi injury / villus structure (mucin2 [3]): preserve the villus structure
lectin staining levels [4]: significantly higher as compared to SAO and SAO-PFC
mucin2 protein levels (relative density, Western blot) (mucin2 [5]): mucin2 density levels similar to the sham; also recorded: reduces mucin2 and mucin13 degradation
levels of MDA equivalents (TBARS) [6]: significantly lower as compared to SAO or SAO+PFC
